We go through 90 molecules from a melting point compilation (Tetko et al.; mined from patent text by program, amines drawn as free bases though some values may be those of a salt).

In turn, `O=Cc1c(Cl)c(Cl)c(Cl)c(Cl)c1Cl` had a melting point of 201 to 203 °C.

As to `CC(C)n1nc(-c2sc(NC(=O)CN3CCCCC3)nc2-c2ccccc2)ccc1=O`, the melting point was 189 to 190 °C.

`CCOC(=O)N1CCC(=C2c3ccccc3CCn3c(C(=O)O)cnc32)CC1` displayed a melting point of 182 °C.

As to `COc1ccc(C(=O)c2cccc(N)c2)cc1OC`, the melting point lay within 157 to 175 °C.

Regarding `COC(=O)CCc1ccc(O)c([N+](=O)[O-])c1`, the melting point was 60 to 62 °C.

Take `CC(C)(C)OC(=O)N1CCOC[C@H]1CC(=O)O`: the melting point came to 82 °C.

`O=C(NCc1cccnc1)c1cc(N2CCN(Cc3ccc(F)cc3)C2=O)n[nH]1` gave a melting point of 251 to 253 °C.

The molecule `COc1cc2cnn(CCCCl)c(=O)c2cc1OC` yielded a melting point of 185 to 187 °C.

Take `CS(=O)(=O)c1ccc(Nc2ccn(-c3ccccc3)n2)cc1`: the melting point lay within 185 to 187 °C.

Turning to `CC(C#CC1=C(C)C(O)C(O)CC1(C)C)=CCO` (stereo not given), the melting point lay within 115 to 117 °C.

For the molecule `C#CCNC1=Nc2c(c(C)nn2C)C(c2ccccc2)=NC1`, the melting point was in the range of 193 to 195 °C.

`CCCCC(=N)NC(=O)Nc1ccc(Cl)cc1` had a melting point of 164 to 169 °C.

Molecule `Cc1nc(-c2ccc(Cl)cc2)n[nH]1` registered a melting point of 173 to 175 °C.

`C#CCn1c(=O)cc(-c2ccccc2)c2cccnc21` came in with a melting point of 127 to 129 °C.

The molecule `Cc1ccc(C(=Cc2nnnn2C)c2ccc(C)cc2C)c(C)c1` registered a melting point of 143 to 144 °C.

`Nc1noc(-c2cc3c(Oc4ccc(Cl)cc4)cncc3s2)n1` had a melting point of 217 to 219 °C.

In turn, `O=C(O)C=Cc1cccc(Oc2ccccc2)c1` showed a melting point of 107 to 109 °C.

Regarding `CCOC(=O)c1cn(Cc2cnsn2)c2cc(F)c(F)cc2c1=O`, the melting point was in the range of 198 to 201 °C.

`O=[N+]([O-])c1cc(C(F)(F)F)cc2c1nc(C(F)(F)F)n2S(=O)(=O)c1ccccc1`: the melting point lay within 183 to 185 °C.

Consider `NC(=O)C1CCC(NC(=O)NCc2ccc3c(c2)CN(C2CCC(=O)NC2=O)C3=O)CC1` (stereo not given), for which the melting point lay within 195 to 197 °C.

On to `NC1C2CN(C(=O)Nc3ccc(F)cc3)CC12` (stereo not given), for which the melting point was found to be 150 °C.

For `COc1cc2c(cc1C(C)=O)CC1(CCCCN1C(=O)C(F)(F)F)CC2` (stereo not given), the melting point is 156 to 157 °C.

Molecule `COc1ccc2ncnc(N3CCCc4ccccc43)c2c1` gave a melting point of 98 °C.

Molecule `Cc1c(-c2ccc(S)nn2)ssc1=S` had a melting point of 245 °C.

Take `CC(C)(C)NS(=O)(=O)c1c(CCl)nc2ccccn12`: the melting point is 180 to 182 °C.

`Cc1oc(-c2ccco2)nc1COc1ccc(COc2nn(-c3ccccc3)cc2C=O)cc1` yielded a melting point of 148 to 149 °C.

Consider `O=C(O)CN1CCOCC1`, for which the melting point lay within 169 to 170 °C.

As to `Nc1nc2ccccc2c2c1ncn2CCOCC#Cc1ccccc1`, the melting point fell in the range of 196 to 197 °C.

The molecule `O=C(O)CNS(=O)(=O)c1cc2ccc(Cl)cc2cc1Cl` yielded a melting point of 185 to 188 °C.

`Cc1cc(-c2nc3cccnn3c2-c2ccnc(NC(=O)c3cnccn3)c2)ccc1F` registered a melting point of 229 to 230 °C.

Turning to `Cc1ccc(NC(=O)c2c(Cl)cccc2Cl)c2nccc(Cl)c12`, the melting point fell in the range of 258 to 260 °C.

For `O=C1CCC(N2Cc3c(OCc4ccc(CN5CCC(O)CC5)cc4)cccc3C2=O)C(=O)N1` (stereo not given), the melting point was 204 to 206 °C.

Molecule `CC(C)(C)C(=O)C=C(c1ccccc1)n1cncn1` had a melting point of 70 to 73 °C.

`CCCCCCCCCCCCCCCOCCSCCCO` showed a melting point of 44 to 47 °C.

`O=C(Nc1ccc(F)cc1)c1cccc(Cl)n1`: the melting point is 98 °C.

`COC(=O)c1ccc(OCCNC(=O)C2Cc3ccccc3N2S(=O)(=O)c2ccc(-c3ccc(F)cc3)cc2)cc1F` (stereo not given) registered a melting point of 77 to 81 °C.

Molecule `O=C(O)c1ccc(NC(=O)c2ccc(Cl)cc2Cl)cc1Cl` yielded a melting point of 171 to 175 °C.

`COc1cccc(N2CCN(CCC(O)COc3ccccc3)CC2)c1` (stereo not given): the melting point lay in the range of 58 to 60 °C.

Molecule `NS(=O)(=O)c1nc2ccc(OCC(O)CO)cc2s1` (stereo not given) came in with a melting point of 183 to 185 °C.

The molecule `CNC1=Nc2ccc(Cl)cc2C(c2ccccc2F)=NC1` gave a melting point of 204 to 206 °C.

Take `CC(O)CCc1ccc2c(c1)C(=O)c1ccccc1-2` (stereo not given): the melting point was in the range of 77 to 78 °C.

Consider `CCOC(=O)Cn1c(C(=O)OCC)c2c(c1C(=O)OCC)OCCCO2`, for which the melting point is 140 °C.

For the molecule `O=C(Nc1nc2ccc(Cl)cc2s1)c1ccc2cccnc2c1O`, the melting point was greater than 320 °C.

In the case of `CCc1noc(C)c1-c1[nH]c2ccccc2c1C(=O)C(=O)N(C)C`, the melting point lay within 212 to 215 °C.

Molecule `Cc1c(Cl)cccc1-n1nc(C(N)=O)nc1-c1ccccc1` returned a melting point of 198 to 200 °C.

On to `Cc1ccc(-c2cc(N3CCCC3)c(C#N)c3c2-c2ccccc2C3=O)cc1`, for which the melting point was 162 to 164 °C.

In turn, `COc1ccc(C)c2nc(Cl)c(C(C)C)cc12` yielded a melting point of 74 to 76 °C.

Molecule `Cc1ccc2nc(C3(c4ccc(S(N)(=O)=O)cc4)C=C(C(F)(F)C(F)(F)F)NN3)sc2c1` (stereo not given) had a melting point of 234 to 235 °C.

The molecule `CC(C(=O)O)S(=O)(=O)c1ccc2c(-c3ccccc3F)noc2c1Cl` (stereo not given) displayed a melting point of 220 to 225 °C.

`O=C(Nc1ccc(-n2nc(C(F)(F)F)cc2Cl)cc1)c1ccncc1F` registered a melting point of 128 to 129 °C.

Take `CC(=O)OC1CCN(C2c3cc4nonc4cc3OC(C)(C)C2O)C(=O)C1` (stereo not given): the melting point was 204 to 206 °C.

In turn, `CC(=O)N1c2c(ccn3c(C)c(C)nc23)[C@@H](O)[C@H](OC(=O)C(C)(C)C)[C@H]1c1ccccc1` returned a melting point of 103 to 105 °C.

Take `CNC(=O)NS(=O)(=O)c1ccccc1OC(Cl)=CCl`: the melting point was in the range of 225 to 226 °C.

Turning to `CCOC(=O)Cc1ccnc(-c2nn(C(C)(C)C)c(N)c2C#N)c1`, the melting point lay within 141 to 143 °C.

With `CC(C)(C)c1cc(CCc2ccccc2NC(=O)N2CCN(c3ccccc3)CC2)cc(C(C)(C)C)c1O`, the melting point lay in the range of 155 to 156 °C.

Regarding `COc1cc(C=CC(=O)c2ccc(C3CCCCC3)cc2)cc(OC)c1`, the melting point fell in the range of 75.5 to 76.2 °C.

As to `O=c1cc(-c2ccccc2)[nH]c2c(O)c(O)ccc12`, the melting point was in the range of 270 to 274 °C.

Take `Cc1noc(NS(=O)(=O)c2ccsc2C(=O)Oc2ccc3c(c2)OCO3)c1Cl`: the melting point lay in the range of 189 to 191 °C.

The molecule `COc1cc(Nc2nccc(Nc3cccc(C)c3S(N)(=O)=O)n2)cc(OC)c1OC` yielded a melting point of 72 to 75 °C.

`Cc1cc(C)cc(C(=O)Cc2ccnc(N)c2)c1` gave a melting point of 123 to 126 °C.

`Fc1cccc(F)c1-c1ccc2ncccc2c1`: the melting point was in the range of 112 to 113 °C.

`O=c1ccc(C(F)(F)F)cn1-c1ccc(NCCO)cc1Cl` displayed a melting point of 161 to 164 °C.

In turn, `CC(C)(C)C1(C(F)n2cncn2)CO1` (stereo not given) gave a melting point of 72 to 74 °C.

Regarding `COc1nc(N2C(=O)C3CCCCN3C2=O)c(F)cc1C#N` (stereo not given), the melting point fell in the range of 159 to 170 °C.

Take `CC(Br)C(=O)c1ccc(CN2C(=O)c3ccccc3C2=O)s1` (stereo not given): the melting point was 127 to 130 °C.

On to `CC(=O)c1nn(-c2c(Cl)cc(C(F)(F)F)cc2Cl)c(N)c1S(C)(=O)=O`, for which the melting point fell in the range of 77 to 79 °C.

For the molecule `NC(=O)C1(c2ccn(C(CC(=O)OCc3ccccc3)C(=O)NC(CO)Cc3ccccc3)c2)C=CC(c2ccccc2)=CC1` (stereo not given), the melting point fell in the range of 192 to 194 °C.

Take `O=c1c2c(Cc3ccccc3O)n[nH]c2c2cccnc2n1-c1ccccc1`: the melting point lay within 278 to 280 °C.

The molecule `N#CC(C(=O)NC1CCC1)C(=O)C1CC1` (stereo not given) yielded a melting point of 110 to 111 °C.

Turning to `CC1COc2c(N3Cc4cccc(F)c4C3)c(F)cc3c(=O)c(C(=O)O)cn1c23` (stereo not given), the melting point was greater than 300 °C.

In the case of `N#CCC(=O)c1cccn1Cc1ccccc1`, the melting point lay in the range of 119 to 120 °C.

Turning to `Cn1c(COc2ccc(CC3SC(=O)N(C(c4ccccc4)(c4ccccc4)c4ccccc4)C3=O)cc2)nc2ccc(Cl)nc21` (stereo not given), the melting point was in the range of 97 to 99 °C.

In the case of `COCCOc1cc2ncc(C#N)c(Cl)c2cc1OC`, the melting point was 178 to 180 °C.

`CCc1nc2c(C)cc(C)nc2n1-c1ccc(CC(C)OC(=O)NS(=O)(=O)c2ccc(C)cc2)cc1` (stereo not given) returned a melting point of 108 °C.

For the molecule `CCOC(=O)CN1CC(=O)N(C)c2ccc(NC(=O)NCc3ccccc3)cc2C1=O`, the melting point is 151 °C.

Molecule `CCCCCCCCCCCCCCCCCCOc1cc(OCCCOc2ccc(O)cc2)cc(C(=O)OC)c1` gave a melting point of 85 to 88 °C.

Molecule `CCCCN1C=CC(N2CCC(F)(c3ccccc3)C(Cl)C2=O)=CC1` (stereo not given) returned a melting point of 137 °C.

For `COc1cc([N+](=O)[O-])ccc1S(=O)(=O)N1C(=O)C(N)(c2ccccc2Cl)c2cc(Cl)ccc21` (stereo not given), the melting point came out at 229 °C.

With `CC(=O)C(=Cc1cccc([N+](=O)[O-])c1)P(=O)(OCC(C)C)OCC(C)C`, the melting point was in the range of 81 to 82 °C.

Molecule `COc1nc2ccccc2cc1N(C)C(=O)N1CCN(c2cc(C)cc(C)c2)CC1` had a melting point of 142 to 143 °C.

The molecule `CN1CCN(c2nc3ccccc3nc2Cc2ccccc2)CC1` yielded a melting point of 89 to 90 °C.

`CN(C)Cc1cc(C(=O)c2cccn2C)cc(C(C)(C)C)c1O` came in with a melting point of 174 °C.

`COc1cc(Nc2nccc(Nc3ccc(N4CCN(C)CC4)cc3)n2)cc(OC)c1OC` yielded a melting point of 104 °C.

`COC(=O)CN(c1cc2cc(OC)c(=O)oc2cc1OCc1ccccc1)S(N)(=O)=O`: the melting point was in the range of 178 to 179 °C.

The molecule `COCc1nc2c(OC)ccc(C(=O)Cc3ccncc3)c2[nH]1` gave a melting point of 218 to 220 °C.

`Nc1ccc(NCCNS(=O)(=O)c2ccccc2)cc1`: the melting point was 144 °C.

In the case of `CCOC(=O)c1ccc(/C=C(/COCc2ccc(OC)cc2)Cn2ccnc2)c(Cl)c1`, the melting point lay within 41 to 42 °C.

In the case of `CC(C)(C)OC(=O)CN1CCSC1=NC#N`, the melting point lay in the range of 143 to 144 °C.

Turning to `CC(=O)c1ccc(-c2cnn3c(O)ncnc23)cc1`, the melting point was greater than 300 °C.

In turn, `CC1(C)C(=O)Nc2cc3[nH]c(C4CC4)nc3cc21` came in with a melting point of 266 to 268 °C.
